{"source": "patent US20200338028A1", "about": "“BENZENESULFONAMIDE DERIVATIVES AND METHOD FOR MODULATING LIPID RAFT” (Gongwin Biopharm Co., Ltd., priority 2017, published 2020)", "assay_type_in_all_cases": "cell-based, human", "key": {"PC-3 cells [1]": {"tested_on": "PC-3 cells", "assay": "PTS-induced apoptosis with Z-VAD-FMK (PI staining and nucleosomal DNA fragmentation assay)", "details": "PC-3, 24 hours, FIG. 2E and 2F", "protocol": "Flow cytometric analysis was performed as follows. Cells were harvested by trypsinization, fixed with 70% (v/v) alcohol at 4° C. for 30 min and washed with PBS. After centrifugation, the cells were incubated in phosphate-citric acid buffer (0.2 mol/l NaHPO4, 0.1 mol/l citric acid, pH 7.8) for 30 min at room temperature. The cells were then centrifuged and resuspended with 0.5 ml propidium iodide (PI) solution containing Triton X-100 (0.1% v/v), RNase (100 μg/ml) and PI (80 μg/ml). DNA content was analyzed with the FACScan and CellQuest software (Becton Dickinson, Mountain View, Calif., United States).\nThe DNA fragmentation was determined for cell death determination by use of the Cell Death Detection ELISAplus kit (Roche, Mannheim, Germany) The assay was based on the quantitative in vitro determination of cytoplasmic histone-associated DNA fragments (mono- and oligonucleosomes) after induced cell death. After the treatment with the compound, the cells were lysed and centrifuged, and the supernatant was used for the detection of nucleosomal DNA according to the manufacturer's protocol."}, "PC-3 cells [2]": {"tested_on": "PC-3 cells", "assay": "colony formation (clonogenic) assay", "details": "PC-3, PTS 1.5 mM, 10 days, FIG. 6E", "protocol": "To assay the anchorage-dependent clonogenic effect, each individual PC-3 and DU-145 cells (150 cells/well) were seeded in a 6-well plate. After a 10-day treatment with p-TSA, the cell colonies were rinsed with phosphate-buffered saline (PBS), stained with 0.4% (w/v) crystal violet dissolved in 20% methanol, and lysed by 50 mM sodium citrate dissolved in 50% ethanol. The absorbance was read at a wavelength of 595 nm.\nTo further substantiate the role of Akt, the Myr-Akt overexpressed PC-3 cells were prepared with the method shown as follows. The plasmid encoding Myr-Akt, an N-terminally myristoylation signal-attached Akt, was a gift from Professor Mien-Chie Hung (The University of Texas, M.D. Anderson Cancer Center). For transfection, PC-3 cells were seeded into 60-mm tissue culture dishes with 30% confluence and grown for 24 h to 50-60% confluence. Each dish was washed with serum-free Opti-MEM (Life Technologies), and 2 ml of the serum-free Opti-MEM was then added. Aliquots containing Myr-Akt expression vector or a control plasmid in serum-free Opti-MEM were transfected into cells using Lipofectamine 2000 (Invitrogen) following the manufacturer's instructions. After incubation for 6 h at 37° C., cells were washed with serum-free Opti-MEM and incubated in 10% FBS-containing RPMI-1640 medium for 48 h. The cells were treated with or without p-TSA and then the related analyses were performed. […] Furthermore, the functional rescue of Myr-Akt was determined. […] However, overexpression of Myr-Akt had minimal effect on p-TSA-induced cyclin D1 down-regulation."}, "DU-145 cells": {"tested_on": "DU-145 cells", "assay": "Western blot of Bcl-2 family members, cell cycle regulators and Akt/mTOR/p70S6K pathway signals", "protocol": "(§1) In addition, protein expression assay of each Mcl-1, Bcl-2, Bid, PUMA and Bak was performed by western blotting with methods described as follows. After treatment of PC-3 and DU145 cells with p-TSA, the cells were harvested with trypsinization, centrifuged and lysed in 0.1 ml of lysis buffer containing 10 mM Tris-HCl (pH 7.4), 150 mM NaCl, 1 mM EGTA, 1% Triton X-100, 1 mM PMSF, 10 μg/ml leupeptin, 10 μg/ml aprotinin, 50 mM NaF and 100 μM sodium orthovanadate. Total protein was quantified, mixed with the sample buffer and boiled at 90° C. for 5 min. Equal amount of protein (30 μg) was separated by electrophoresis in 8% or 12% SDS-PAGE, transferred to PVDF membranes and detected with specific antibodies (1:1000 dilution) for each of Mcl-1, Bcl-2, Bid, PUMA and Bak proteins. The immunoreactive proteins after incubation with appropriately labeled secondary antibody (1:3000 dilution) were detected with an enhanced chemiluminescence detection kit (Amersham, Buckinghamshire, United Kingdom). […] These effects were correlated with the mitochondrial stress.\n(§2) During G1 phase, cells grow in size and synthesize mRNA and proteins which are necessary to DNA synthesis. The serine/threonine kinases mTOR and p70S6K that regulate protein synthesis (mRNA translation) through affecting the phosphorylation or activities of several downstream translation factors are critical regulators in G1 phase. Protein expression assay of each Akt, mTOR 4E-BP1 and p70S6K was performed by Western blotting."}, "PC-3 cells [3]": {"tested_on": "PC-3 cells", "assay": "Western blot of Bcl-2 family members, cell cycle regulators and Akt/mTOR/p70S6K pathway signals", "details": "PC-3, 1 h, FIGS. 6A to 6D", "protocol": "as §1, §2"}, "[4]": {"details": "particularly in DU-145 cells, 1 h"}}, "note": "Peptide text beside a SMILES is read from it. * marks the point of attachment. Cbz = O=C(OCc1ccccc1)*; CH2F = FC*", "data": [{"smiles": "COC(=O)C[C@H](NC(=O)[C@H](C)NC(=O)[C@@H](NC(=O)OCc1ccccc1)C(C)C)C(=O)CF", "note": "[Z-VAD-FMK] (Cbz-Val-Ala-Asp(OMe)-CH2F)", "values": [{"measurement": "effect of Z-VAD-FMK on PTS-induced apoptosis", "setting": "PC-3 cells [1]", "value": "profoundly inhibited PTS-induced apoptosis"}]}, {"smiles": "CC(C)CCC[C@@H](C)[C@H]1CC[C@H]2[C@@H]3CC=C4C[C@@H](O)CC[C@]4(C)[C@H]3CC[C@]12C", "note": "[cholesterol, reference compound]", "values": [{"measurement": "effect of cholesterol on PTS-induced inhibition of cell growth, colony formation assay", "setting": "PC-3 cells [2]", "value": "significantly rescued PTS-induced inhibition of cell growth"}, {"measurement": "effect of cholesterol supplement on p-TSA-induced decrease of Akt and p70S6K phosphorylation", "setting": "DU-145 cells; DU-145, 1 h, FIGS. 6A to 6D", "value": "significantly rescued"}, {"measurement": "Akt phosphorylation, cholesterol by itself", "setting": "DU-145 cells; [4]", "value": "increase"}, {"measurement": "cyclin D1 protein expression, cholesterol by itself", "setting": "DU-145 cells; [4]", "value": "decrease"}, {"measurement": "effect of cholesterol supplement on p-TSA-induced decrease of Akt and p70S6K phosphorylation", "setting": "PC-3 cells [3]", "value": "significantly rescued"}]}]}
